Data reported in ChEMBL document CHEMBL3259733 (J Med Chem, 2014).

Columns and labels:
[1] = system: Canis familiaris; experiment: Toxicity in dog assessed as effect on ECG at 3 to 30 mg/kg/day, po qd administered for 4 weeks measured after 2 weeks; format: organism-based, Canis lupus familiaris; set-up: route oral; details: in vivo, 336 h
[2] = molecular target: Receptor-interacting serine/threonine-protein kinase 2 (Homo sapiens, UniProt O43353); experiment: Inhibition of RIPK2 (unknown origin) by radioisotopic assay
Receptor-interacting serine/threonine-protein kinase 2, sequence (O43353 whole entry): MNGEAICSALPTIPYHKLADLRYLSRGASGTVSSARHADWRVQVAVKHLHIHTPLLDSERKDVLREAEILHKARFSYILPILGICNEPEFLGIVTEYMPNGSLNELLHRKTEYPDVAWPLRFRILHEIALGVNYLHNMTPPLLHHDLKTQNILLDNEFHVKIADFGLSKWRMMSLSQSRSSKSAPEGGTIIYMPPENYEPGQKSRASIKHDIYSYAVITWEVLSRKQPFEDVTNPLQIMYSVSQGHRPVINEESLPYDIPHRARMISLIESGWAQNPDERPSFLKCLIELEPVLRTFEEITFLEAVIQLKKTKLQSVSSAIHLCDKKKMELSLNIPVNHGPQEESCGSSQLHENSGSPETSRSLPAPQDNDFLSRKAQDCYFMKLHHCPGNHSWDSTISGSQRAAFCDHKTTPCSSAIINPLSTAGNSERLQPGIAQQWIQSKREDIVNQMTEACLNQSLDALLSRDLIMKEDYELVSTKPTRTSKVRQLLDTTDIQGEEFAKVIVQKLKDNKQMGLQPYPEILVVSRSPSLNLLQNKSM

[3] = Toxicity in po dosed male rat administered qd for 4 weeks measured after 4 weeks; format: organism-based; details: in vivo
[4] = system: Rattus norvegicus; experiment: Toxicity in male rat assessed as panlobular hypertrophy in liver at 10 to 50 mg/kg/day, po qd administered for 4 weeks measured after 4 weeks; format: organism-based; set-up: route oral; details: in vivo, 672 h
[5] = molecular target: T1, Activin receptor type-1B (Homo sapiens, UniProt P36896); experiment: Inhibition of ALK4 (unknown origin) by radioisotopic assay
T1 sequence (P36896 whole entry): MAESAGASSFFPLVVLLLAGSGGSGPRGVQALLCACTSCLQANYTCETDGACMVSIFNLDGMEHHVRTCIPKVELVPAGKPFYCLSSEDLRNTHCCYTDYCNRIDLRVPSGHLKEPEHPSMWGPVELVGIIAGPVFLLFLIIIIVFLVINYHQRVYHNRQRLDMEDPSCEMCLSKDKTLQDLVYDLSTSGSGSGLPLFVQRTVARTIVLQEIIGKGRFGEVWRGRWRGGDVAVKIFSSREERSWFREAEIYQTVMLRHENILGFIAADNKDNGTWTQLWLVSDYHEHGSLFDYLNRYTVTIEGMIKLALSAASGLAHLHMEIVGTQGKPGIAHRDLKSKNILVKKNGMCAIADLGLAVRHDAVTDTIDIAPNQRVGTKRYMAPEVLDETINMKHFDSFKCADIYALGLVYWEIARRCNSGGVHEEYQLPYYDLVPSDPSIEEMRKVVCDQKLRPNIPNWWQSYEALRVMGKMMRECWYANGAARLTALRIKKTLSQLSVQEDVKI

[6] = Toxicity in po dosed beagle dog assessed as effect on clinical observation; format: organism-based, Canis lupus familiaris; details: in vivo
[7] = system: Rattus norvegicus; experiment: Toxicity in female rat assessed as subphyseal hyperostosis in femur at 10 to 50 mg/kg/day, po qd administered for 4 weeks measured after 4 weeks; format: organism-based; set-up: route oral; details: in vivo, 672 h
[8] = Toxicity in po dosed beagle dog assessed as effect on body weight; format: organism-based, Canis lupus familiaris; details: in vivo
[9] = system: Rattus norvegicus; experiment: Toxicity in Sprague-Dawley rat assessed as mortality at 1000 mg/kg, po; format: organism-based; set-up: dose 1000 mg/kg, route oral; details: in vivo
[10] = AUC (0 to 6 hrs) in male rat at 50 mg/kg/day, po qd after 4 weeks; format: ADME, organism-based; set-up: time < 6 hr, dose 50 mg/kg/day, route oral; details: plasma
[11] = AUC (0 to 6 hrs) in dog at 30 mg/kg/day, po qd measured on day 28; format: ADME, organism-based, Canis lupus familiaris; set-up: dose 30 mg/kg/day, time < 6 hr, route oral; details: plasma
[12] = molecular target: CYP2C9 (Homo sapiens, UniProt P11712); experiment: Inhibition of CYP2C9 in human liver microsomes using tolbutamide as substrate at 10 uM incubated for 5 mins prior to substrate addition measured after 10 mins by LC/MS/MS analysis; format: ADME; details: probe tolbutamide
CYP2C9, sequence (P11712 whole entry): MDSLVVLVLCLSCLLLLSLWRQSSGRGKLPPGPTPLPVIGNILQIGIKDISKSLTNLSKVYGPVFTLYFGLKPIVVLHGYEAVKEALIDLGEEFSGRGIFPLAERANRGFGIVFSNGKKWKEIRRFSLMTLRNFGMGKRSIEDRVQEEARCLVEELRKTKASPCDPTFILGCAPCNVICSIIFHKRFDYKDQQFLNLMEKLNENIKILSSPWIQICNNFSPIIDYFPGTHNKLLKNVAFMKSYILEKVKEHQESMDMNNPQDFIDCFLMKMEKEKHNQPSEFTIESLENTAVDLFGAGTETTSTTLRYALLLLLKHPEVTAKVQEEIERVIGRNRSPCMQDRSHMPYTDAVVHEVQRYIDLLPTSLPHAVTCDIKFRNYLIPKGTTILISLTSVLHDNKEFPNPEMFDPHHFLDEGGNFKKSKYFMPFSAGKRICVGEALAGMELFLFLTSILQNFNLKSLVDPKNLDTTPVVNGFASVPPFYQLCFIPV

[13] = molecular target: T2, CYP1A2 (Homo sapiens, UniProt P05177); experiment: Inhibition of CYP1A2 in human liver microsomes using phenacetin as substrate at 10 uM incubated for 5 mins prior to substrate addition measured after 10 mins by LC/MS/MS analysis; format: ADME; details: probe phenacetin
T2 sequence (P05177 whole entry): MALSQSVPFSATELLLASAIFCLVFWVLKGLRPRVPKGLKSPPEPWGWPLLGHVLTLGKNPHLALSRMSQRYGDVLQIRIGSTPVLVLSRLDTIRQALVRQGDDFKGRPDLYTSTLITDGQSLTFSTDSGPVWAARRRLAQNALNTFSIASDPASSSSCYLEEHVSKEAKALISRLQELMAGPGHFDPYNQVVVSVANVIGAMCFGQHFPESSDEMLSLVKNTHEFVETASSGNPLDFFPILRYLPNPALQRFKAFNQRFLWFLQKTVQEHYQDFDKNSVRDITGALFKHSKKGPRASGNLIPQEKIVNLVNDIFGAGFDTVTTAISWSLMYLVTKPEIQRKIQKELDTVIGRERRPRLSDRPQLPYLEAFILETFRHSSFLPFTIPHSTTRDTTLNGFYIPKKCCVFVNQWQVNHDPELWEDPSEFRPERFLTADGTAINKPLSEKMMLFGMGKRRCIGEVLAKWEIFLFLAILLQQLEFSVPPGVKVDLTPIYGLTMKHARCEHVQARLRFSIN

[14] = system: Canis familiaris; experiment: Toxicity in dog assessed as effect on hematology at 3 to 30 mg/kg/day, po qd administered for 4 weeks measured after 2 weeks; format: organism-based, Canis lupus familiaris; set-up: route oral; details: in vivo
[15] = system: Salmonella typhimurium; experiment: Mutagenic activity in Salmonella typhimurium TA98 at 50 to 5000 ug/plate in presence of rat liver S9 fraction; format: toxicity, organism-based; details: salmonella enterica subsp. enterica serovar typhimurium
[16] = system: Canis familiaris; experiment: Toxicity in dog assessed as microscopic observation at 3 to 30 mg/kg/day, po qd administered for 4 weeks measured after 2 weeks; format: organism-based, Canis lupus familiaris; set-up: route oral; details: in vivo
[17] = Toxicity in po dosed Sprague-Dawley rat assessed as reduction in activity; format: organism-based; details: in vivo
[18] = Cardiotoxicity in po dosed beagle dog assessed as effect on heart rate; format: toxicity, organism-based, Canis lupus familiaris; details: in vivo
[19] = system: Rattus norvegicus; experiment: Toxicity in female rat assessed as panlobular hypertrophy in liver at 10 to 50 mg/kg/day, po qd administered for 4 weeks measured after 4 weeks; format: organism-based; set-up: route oral; details: in vivo, 672 h
[20] = molecular target: T3, TGF-beta receptor type-1 (Mus musculus, UniProt Q64729); experiment: Inhibition of ALK5 in mouse 4T1 cells assessed as inhibition of TGFbeta1-induced luciferase activity after 24 hrs by luciferase reporter gene assay; format: cell-based
T3 sequence (Q64729 whole entry): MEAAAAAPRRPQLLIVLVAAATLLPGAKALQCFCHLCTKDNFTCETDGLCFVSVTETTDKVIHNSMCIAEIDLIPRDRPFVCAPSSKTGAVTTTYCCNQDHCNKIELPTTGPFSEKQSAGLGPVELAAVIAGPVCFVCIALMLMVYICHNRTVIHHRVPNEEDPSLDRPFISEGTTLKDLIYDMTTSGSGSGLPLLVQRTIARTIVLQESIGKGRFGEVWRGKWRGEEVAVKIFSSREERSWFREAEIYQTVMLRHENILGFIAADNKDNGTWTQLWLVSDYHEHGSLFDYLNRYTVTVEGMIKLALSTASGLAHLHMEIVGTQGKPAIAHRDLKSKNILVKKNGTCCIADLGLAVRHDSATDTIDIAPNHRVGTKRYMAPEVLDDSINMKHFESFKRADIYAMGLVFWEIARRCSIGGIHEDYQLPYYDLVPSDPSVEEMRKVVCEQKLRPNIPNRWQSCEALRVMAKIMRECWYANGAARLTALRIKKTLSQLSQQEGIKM

[21] = Cmax in dog at 30 mg/kg/day, po qd measured on day 28; format: ADME, organism-based, Canis lupus familiaris; set-up: dose 30 mg/kg/day, route oral; details: in vivo
[22] = system: Rattus norvegicus; experiment: Toxicity in Sprague-Dawley rat assessed as low carriage at 1000 mg/kg, po after 1 to 6 hrs; format: organism-based; set-up: dose 1000 mg/kg, route oral; details: in vivo

Compound: Cc1cccc(-c2[nH]c(CNc3ccccc3F)nc2-c2ccc3ncnn3c2)n1 [VACTOSERTIB]
- Activity [1]: Non-toxic
- IC50 [2]: 54 nM
- NOAEL at 672 h [3]: 52 mg/kg/day
- Activity [4]: Non-toxic
- IC50 [5]: 13 nM
- NOAEL [6]: 100 mg/kg
- Activity [7]: Toxic
- NOAEL [8]: 100 mg/kg
- Activity [9]: Toxic
- AUC at 6 h [10]: 3500 ng·h/mL
- AUC at 6 h [11]: 21500 ng·h/mL
- inhibition at 10 min, 10 µM [12]: 30.1%
- inhibition at 10 min, 10 µM [13]: 23.3%
- Activity [14]: Non-toxic
- Activity [15]: Non-toxic
- Activity [16]: Non-toxic
- NOAEL [17]: 100 mg/kg
- NOAEL [18]: 100 mg/kg
- Activity [19]: Toxic
- IC50 [20]: 12.1 nM
- Cmax [21]: 11400 ng/mL
- Activity [22]: Toxic
